Where “and” joins values, the source holds several entries; their conditions need not be identical. Equal entries are not always repeated.
Columns and labels:
[1] = system: B6-D/+ (Scn8a-N1768D) adult mice; assay: Survival and seizure frequency, adult B6-D/+ mice followed for the entire lifespan; type: in vivo, mouse; parameters: reduction in post-onset seizure frequency: concentration or dose not given beside the values; details: for observed standard effect size, Kaplan-Meier survival: treated versus untreated
Excerpt: (§1) Mouse strains: The C57BL/6J-N1768D congenic mouse (B6-D/+) was used for phenotyping, RNAseq, and BBB studies. In addition, a hybrid strain that was produced by backcross breeding to transfer the Scn8a-N1768D allele from the B6 to the C3H/HeJ strain background was used to further assess the effect of CND on survival and seizure frequency. After constructing an F1 by crossing male B6-D/+ heterozygotes to female C3H/HeJ, five rounds of backcrossing (N6) produced a […] and 98.5% C3H/HeJ-N1768D line (C3H-D/+). Sister-brother mating maintained the 98.5% C3H background. […] C3H-D/D mice have a delayed seizure onset (˜40-45 days) and an extended survival (65-70 days) with intermittent bouts of TCs (FIG. 1A).
(§2) Phenotyping: Female and male mice on both the B6 and C3H backgrounds were housed in sex-specific groups of 3-4 per cage in a pathogen-free mouse facility with a 14 h light/10 h dark cycle (lights turned on at 5 am). A 24/7 video monitoring system was utilized to collect seizure data, with infrared illumination to monitor behavior during the dark period. Seizures were counted as individual TCs. Adult mice were followed from the age of 6 weeks, a period of time well before seizure onset, in order to identify the day of seizure onset. A seizure bout was defined as a cluster of seizures on consecutive days, and a gap as a seizure-free period of 3 days or more.
(§3) Preparation of CND suspension for injections and oral dosing: Juvenile B6-D/D and adult B6-D/+ mice were given subcutaneous (s.c.) injections with either CND (2-4 mg/kg/day; doses that fall within the FDA-approved range for CND in both adults and children) or vehicle (VEH) (Sigma-Aldrich) (FIG. 1B). Oral dosing of adults was performed by thoroughly mixing 160 μl of suspension containing 1.28 mg of CND or VEH with 5 g of pure (organic) peanut butter in a petri dish. Mice were given 1 g pellet per mouse each day. Pellets were weighed each day to record the amount consumed, and 24/7 video was used to verify that each mouse was consuming the pellet. An average of 0.79 g (±0.36 g) was consumed by an adult mouse (˜20-25 g), corresponding to 9.1±4.2 mg/kg/day. No correlations were found for the amount of CND consumed and lifetime survival or number of TCs.
Survival and seizure frequency studies: B6-D/D mice were injected with CND (n=10) or VEH (n=10) at 15 days of age (P15) and followed to monitor TCs by 24/7 video recording until death (FIG. 1B). A separate set of 10 B6-D/D mice was administered a daily s.c. injection of 25 mg/kg/day phenytoin (PHT) suspension or VEH (US Pharmacopeia, Sigma-Aldrich). […] Mice were monitored for seizures by 24/7 video recording until the time of death.

[2] = system: C3H-D/D (Scn8a-N1768D) adult mice; assay: Survival and seizure frequency, adult C3H-D/D mice followed until death; type: in vivo, mouse; details: Treated
Excerpt: as §1, §2, §3
Data for the untreated mice were previously reported. Table 1 also provides C3H-D/D summary statistics for female untreated (N=15) and treated (N=15) and male untreated (N=27) and treated (N=16) monitored until the time of death.

SMILES: CCOc1nc2cccc(C(=O)O)c2n1Cc1ccc(-c2ccccc2-c2nnn[nH]2)cc1 [CND, candesartan]
- increase in survival, treated versus untreated ([1]; B6-D/+ females): 34.7%
- reduction in post-onset seizure frequency ([1]; B6-D/+ females): 88.9%
- observed standard effect size, Kaplan-Meier survival ([1]; B6-D/+ females): 0.59
- increase in survival, treated versus untreated ([1]; B6-D/+ males): 48.9%
- mean days surviving longer than untreated ([1]; B6-D/+ males): 44.5 days
- reduction in post-onset seizure frequency ([1]; B6-D/+ males): 56.5% and 59.1%
- observed standard effect size, Kaplan-Meier survival ([1]; B6-D/+ males): 0.69
- #Days survived postTC ([1]; B6 Females (D/+), Treated): 76.4 days
- #TCs ([1]; B6 Females (D/+), Treated): 14.3 TCs
- #TCs/day (PostTC) ([1]; B6 Females (D/+), Treated): 0.24 TCs/day
- Age at Onset ([1]; B6 Females (D/+), Treated): 91.2 days
- gap days ([1]; B6 Females (D/+), Treated): 34.0 days
- mean gap length ([1]; B6 Females (D/+), Treated): 8.3 days
- Age at Death ([1]; B6 Females (D/+), Treated, oral from seizure onset): 167.6 ± 19.1 days and 167.6 days
- #gaps (av) ([1]; B6 Females (D/+), Treated, gap = seizure-free period of 3 days or more): 4.0
- #Days survived postTC ([1]; B6 Males (D/+), Treated Early): 16.8 days
- #TCs ([1]; B6 Males (D/+), Treated Early): 18.9 TCs
- #TCs/day (PostTC) ([1]; B6 Males (D/+), Treated Early): 2.4 TCs/day
- #gaps (av) ([1]; B6 Males (D/+), Treated Early): 2.6
- Age at Death ([1]; B6 Males (D/+), Treated Early): 121.6 days
- Age at Onset ([1]; B6 Males (D/+), Treated Early): 99.2 days
- gap days ([1]; B6 Males (D/+), Treated Early): 15.0 days
- mean gap length ([1]; B6 Males (D/+), Treated Early): 6.7 days
- #Days survived postTC ([1]; B6 Males (D/+), Treated Late): 52.7 days
- #TCs ([1]; B6 Males (D/+), Treated Late): 43.6 TCs
- #TCs/day (PostTC) ([1]; B6 Males (D/+), Treated Late): 1.0 TCs/day
- #gaps (av) ([1]; B6 Males (D/+), Treated Late): 4.0
- Age at Onset ([1]; B6 Males (D/+), Treated Late): 81.3 days
- gap days ([1]; B6 Males (D/+), Treated Late): 37.8 days
- mean gap length ([1]; B6 Males (D/+), Treated Late): 12.4 days
- Age at Death ([1]; B6 Males (D/+), Treated Late (oral from seizure onset)): 135.8 ± 28.4 days and 135.8 days
- #Days survived postTC ([2]; C3H Females (D/D)): 68.9 days
- #TCs ([2]; C3H Females (D/D)): 30.1 TCs
- #TCs/day (PostTC) ([2]; C3H Females (D/D)): 0.51 TCs/day
- #gaps (av) ([2]; C3H Females (D/D)): 7.5
- Age at Death ([2]; C3H Females (D/D)): 117.4 ± 28.0 days and 117.4 days
- Age at Onset ([2]; C3H Females (D/D)): 48.5 days
- gap days ([2]; C3H Females (D/D)): 44.0 days
- mean gap length ([2]; C3H Females (D/D)): 5.8 days
- #Days survived postTC ([2]; C3H Males (D/D)): 68.9 days
- #TCs ([2]; C3H Males (D/D)): 37.4 TCs
- #TCs/day (PostTC) ([2]; C3H Males (D/D)): 0.57 TCs/day
- #gaps (av) ([2]; C3H Males (D/D)): 9.8
- Age at Death ([2]; C3H Males (D/D)): 117.1 ± 20.4 days and 117.1 days
- Age at Onset ([2]; C3H Males (D/D)): 48.1 ± 5.1 days and 48.1 days

Reference: patent US20250114335A1, “METHODS AND COMPOSITIONS FOR THE TREATMENT OF EPILEPSY” (ARIZONA BOARD OF REGENTS ON BEHALF OF THE UNIVERSITY OF …, priority 2022, published 2025)
